Where two headings read alike, the source gives them in different places.
Tests used:
[1] = molecular target: T1, ERα (Homo sapiens, UniProt P03372); assay: ERα luciferase reporter (pERE2TATA-LUC) transactivation assay in transfected HEK293 cells; assay type: cell-based; set-up: expressed in transfected cells; host or cells: HEK293; conditions: 24 hours; for ERα in vitro activity (receptor activation relative to 10 nM E2): Table 2, previously published compounds, test compound 10 μM; for ERα receptor activation relative to 10 nM E2 corresponding 100: Table 1, sample concentration 10 μM, mean of at least three independent transfections, SEM typically <15%
T1 sequence (P03372 1-595): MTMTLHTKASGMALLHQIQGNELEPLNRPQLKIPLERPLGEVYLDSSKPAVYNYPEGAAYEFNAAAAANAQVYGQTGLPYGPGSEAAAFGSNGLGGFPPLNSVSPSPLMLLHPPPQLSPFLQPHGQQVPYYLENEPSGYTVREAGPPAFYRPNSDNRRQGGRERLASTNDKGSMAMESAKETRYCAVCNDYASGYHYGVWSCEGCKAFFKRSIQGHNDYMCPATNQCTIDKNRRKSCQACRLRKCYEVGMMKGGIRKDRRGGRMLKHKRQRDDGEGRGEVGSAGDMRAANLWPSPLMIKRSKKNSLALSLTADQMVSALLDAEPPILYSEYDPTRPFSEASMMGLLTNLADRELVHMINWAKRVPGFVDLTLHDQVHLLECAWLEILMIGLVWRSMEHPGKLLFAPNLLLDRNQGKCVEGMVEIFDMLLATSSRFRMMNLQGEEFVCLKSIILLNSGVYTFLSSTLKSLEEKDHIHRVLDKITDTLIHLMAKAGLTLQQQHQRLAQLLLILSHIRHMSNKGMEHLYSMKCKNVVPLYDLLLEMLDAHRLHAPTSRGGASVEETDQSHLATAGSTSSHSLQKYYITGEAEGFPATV
Procedure: (§1) All other reagents were of reagent grade from Sigma or Fluka. One day before transfection, HEK293 cells were seeded in 48-well plates (70×10^3 cells per well) in phenol-free Dulbecco's modified Eagle medium supplemented with 5% delipidated fetal bovine serum (Sigma) and antibiotics. After a medium change, the cells were transfected for 4 hours with 5 ng ERα or ERβ expression vector, 75 ng reporter plasmid pERE2TATA-LUC and 20 ng control plasmid pCMVβ by the calcium phosphate method. After transfection, the cells received fresh medium containing either vehicle (0.1% v/v) or test compound (10 μM). After 24 hours, the cells were washed, lysed and luciferase and β-galactosidase activities were determined from 20 μl of lysates with the Victor^2TM reader (PerkinElmer Wallac, Turku, Finland). […] The data are means±SEM of at least three independent transfections.

[2] = molecular target: T2, ERβ (Homo sapiens, UniProt Q92731); assay: ERβ luciferase reporter (pERE2TATA-LUC) transactivation assay in transfected HEK293 cells; assay type: cell-based; set-up: expressed in transfected cells; host or cells: HEK293; conditions: for ERβ in vitro activity (receptor activation relative to 10 nM E2): Table 2, previously published compounds, test compound 10 μM; for Emax at 10 µM: HEK293, 24 h
T2 sequence (Q92731 whole entry): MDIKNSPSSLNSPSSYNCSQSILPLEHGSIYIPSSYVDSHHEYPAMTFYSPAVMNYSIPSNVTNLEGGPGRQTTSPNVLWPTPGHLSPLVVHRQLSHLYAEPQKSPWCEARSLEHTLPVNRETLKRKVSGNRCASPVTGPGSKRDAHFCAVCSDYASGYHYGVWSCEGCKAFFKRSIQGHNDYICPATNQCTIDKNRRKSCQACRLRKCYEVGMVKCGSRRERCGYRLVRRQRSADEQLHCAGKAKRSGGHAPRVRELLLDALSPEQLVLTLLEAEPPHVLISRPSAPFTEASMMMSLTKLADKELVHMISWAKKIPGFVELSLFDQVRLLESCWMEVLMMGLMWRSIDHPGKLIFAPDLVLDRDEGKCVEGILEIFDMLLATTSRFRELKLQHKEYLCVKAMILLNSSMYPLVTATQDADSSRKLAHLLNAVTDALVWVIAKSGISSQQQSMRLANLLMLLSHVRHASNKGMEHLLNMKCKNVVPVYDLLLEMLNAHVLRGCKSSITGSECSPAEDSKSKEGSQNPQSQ
Procedure: as §1

[3] = molecular target: T1, ERα; assay: Competitive binding assay against [6,7-3H(N)]estradiol in transiently transfected COS-1 cells, ERα; conditions: for IC50: ERα IC50 (median inhibition concentration), competition against labeled E2, COS-1 cells with pSG5-hERα, 2 hours at 37° C.; for ERα RBA (relative binding affinity): in comparison to E2 = 100
Procedure: (§2) Relative binding affinities (RBA) were measured by a competitive assay against [6, 7-^3H(N)]estradiol (PerkinElmer) in transsiently transfected COS-1 cells. […] After 2 hours of incubation at 37° C. the medium was removed. The cells were removed from the wells to 150 μl of 1× phosphate buffered saline (PBS), transferred to Eppendorf tubes and centrifuged at 4° C. using 4000 g for 5 min, and then washed twice with 150 μl of PBS. The cell pellets were dissolved to 50 μl of 0.5M NaOH and incubated for 15 min at 56° C., after which the samples were transferred to liquid twinkle tubes and treated with 3 ml of OptiPhase HiSafe 3 twinkle solution (PerkinElmer).

[4] = molecular target: T2, ERβ; assay: Competitive binding assay against [6,7-3H(N)]estradiol in transiently transfected COS-1 cells, ERβ; conditions: for IC50: ERβ IC50 (median inhibition concentration), competition against labeled E2, COS-1 cells with pSG5-hERβ, 2 hours at 37° C.; for ERβ RBA (relative binding affinity): in comparison to E2 = 100
Procedure: as §2

[5] = read-out: ERβ receptor activation relative to 10 nM E2 corresponding 100, Table 1, sample concentration 10 μM, mean of at least three independent transfections, SEM typically <15%

With `O=C(CCCc1ccccc1)CC(O)c1ccccc1` (single isomer, unassigned) [Compound 59b, 1-Hydroxy-1,6-diphenyl-hexan-3-one] the “ERα in vitro activity (receptor activation relative to 10 nM E2)” value [1] was 59.3%, the “ERβ in vitro activity (receptor activation relative to 10 nM E2)” value ([2]; 24 hours) was 28.2% and the IC50 [3] was 2.17 µM. For the same molecule, the “ERα RBA (relative binding affinity)” value [3] was 0.090%, the IC50 [4] was 11 µM and the “ERβ RBA (relative binding affinity)” value [4] was 0.018%.
`O=C(CCCc1ccccc1)CC(O)c1ccccc1` (single isomer, unassigned) [Compound 59a, 1-Hydroxy-1,6-diphenyl-hexan-3-one] was tested, and the “ERα in vitro activity (receptor activation relative to 10 nM E2)” value [1] was 91.4%, the “ERβ in vitro activity (receptor activation relative to 10 nM E2)” value ([2]; 24 hours) was 147.3% and the IC50 [3] was 1.7 µM. For the same molecule, the “ERα RBA (relative binding affinity)” value [3] was 0.115%, the IC50 [4] was 1.09 µM and the “ERβ RBA (relative binding affinity)” value [4] was 0.180%.
In the case of `O=C(CCc1ccc(O)cc1)CC(O)Cc1ccccc1` (stereo not shown) [Compound 31ab, 5-Hydroxy-1-(4-hydroxy-phenyl)-6-phenyl-hexan-3-one], the “ERα receptor activation relative to 10 nM E2 corresponding 100” value [1] is reported as 55.0%, the Emax at 10 µM [2, 5] is reported as 107% and the IC50 [3] is reported as 7.9 µM. For the same molecule, the “ERα RBA (relative binding affinity)” value [3] was 0.025%, the IC50 [4] was 1.25 µM and the “ERβ RBA (relative binding affinity)” value [4] was 0.157%.
For `O=C(CCCc1ccc(O)cc1)CC(O)Cc1ccccc1` (stereo not shown) [Compound 40ab, 2-Hydroxy-7-(4-hydroxy-phenyl)-1-phenyl-heptan-4-one], the “ERα receptor activation relative to 10 nM E2 corresponding 100” value [1] was 105.2%, the Emax at 10 µM [2, 5] was 82.3% and the IC50 [3] was 0.105 µM. The “ERα RBA (relative binding affinity)” value [3] was 1.867%, the IC50 [4] was 1.08 µM and the “ERβ RBA (relative binding affinity)” value [4] was 0.181%.
`CC(O)(CC(=O)CCCc1ccccc1)c1ccccc1` (stereo not shown) [Compound 36ab, 6-Hydroxy-1,6-diphenyl-heptan-4-one] was tested, and the “ERα receptor activation relative to 10 nM E2 corresponding 100” value [1] was 83.3%, the Emax at 10 µM [2, 5] was 15.1% and the IC50 [3] was 0.81 µM. For the same molecule, the “ERα RBA (relative binding affinity)” value [3] was 0.242%, the IC50 [4] was 2.05 µM and the “ERβ RBA (relative binding affinity)” value [4] was 0.096%.
`O=C(CCCc1ccc(O)cc1)CC(O)c1ccccc1` (single isomer, unassigned) [Compound 34b, 1-Hydroxy-6-(4-hydroxy-phenyl)-1-phenyl-hexan-3-one] was tested, and the “ERα receptor activation relative to 10 nM E2 corresponding 100” value [1] was 140.0%, the “ERβ receptor activation relative to 10 nM E2 corresponding 100” value ([2]; Table 1, sample concentration 10 μM, 24 hours, mean of at least three independent transfections, SEM typically <15%) was 155.3% and the IC50 [3] was 0.00213 µM. The “ERα RBA (relative binding affinity)” value [3] was 92.02%, the IC50 [4] was 0.0105 µM and the “ERβ RBA (relative binding affinity)” value [4] was 18.67%.
`O=C(CCCc1ccc(O)cc1)CC(O)c1ccccc1` (single isomer, unassigned) [Compound 34a, 1-Hydroxy-6-(4-hydroxy-phenyl)-1-phenyl-hexan-3-one] was tested, and the “ERα receptor activation relative to 10 nM E2 corresponding 100” value [1] was 139.2%, the Emax at 10 µM [2, 5] was 170% and the IC50 [3] was 0.0009 µM. For the same molecule, the “ERα RBA (relative binding affinity)” value [3] was 217.8%, the IC50 [4] was 0.0034 µM and the “ERβ RBA (relative binding affinity)” value [4] was 57.65%.
With `COC(CCc1ccccc1)CC(=O)c1ccccc1` (stereo not shown) [Compound 62ab, 3-Methoxy-1,5-diphenyl-pentan-1-one] the “ERα in vitro activity (receptor activation relative to 10 nM E2)” value [1] was 38.1% and the Emax at 10 µM ([2]; read-out: ERβ in vitro activity (receptor activation relative to 10 nM E2), Table 2, previously published compounds, test compound 10 μM) was 28.8%.
For `O=C(Cc1ccccc1)CC(O)c1cccc(O)c1` (stereo not shown) [Compound 19ab, 4-Hydroxy-4-(3-hydroxyphenyl)-1-phenyl-butan-2-one], the “ERα receptor activation relative to 10 nM E2 corresponding 100” value [1] was 12.0% and the Emax at 10 µM [2, 5] was 7.7%.

— patent US20100249243A1, “NOVEL BETA-HYDROXYKETONES AND BETA-ALKOXYKETONES WITH ESTROGENIC ACTIVITY” (priority 2007, published 2010)
